Where two headings read alike, the source gives them in different places.
What was measured:
off-target kinases [1] = target: off-target kinases (Homo sapiens, UniProt P10721, A829P); assay: SelectScreen Kinase Profiling, single point inhibition and IC50 for off-target kinases; assay type: biochemical; conditions: KIT A829P, LanthaScreen Binding
off-target kinases [2] = target: T1, off-target kinases (Homo sapiens, UniProt P29320); assay: as above; assay type: biochemical; conditions: EPHA3, LanthaScreen Binding
T1 sequence (P29320 21-983): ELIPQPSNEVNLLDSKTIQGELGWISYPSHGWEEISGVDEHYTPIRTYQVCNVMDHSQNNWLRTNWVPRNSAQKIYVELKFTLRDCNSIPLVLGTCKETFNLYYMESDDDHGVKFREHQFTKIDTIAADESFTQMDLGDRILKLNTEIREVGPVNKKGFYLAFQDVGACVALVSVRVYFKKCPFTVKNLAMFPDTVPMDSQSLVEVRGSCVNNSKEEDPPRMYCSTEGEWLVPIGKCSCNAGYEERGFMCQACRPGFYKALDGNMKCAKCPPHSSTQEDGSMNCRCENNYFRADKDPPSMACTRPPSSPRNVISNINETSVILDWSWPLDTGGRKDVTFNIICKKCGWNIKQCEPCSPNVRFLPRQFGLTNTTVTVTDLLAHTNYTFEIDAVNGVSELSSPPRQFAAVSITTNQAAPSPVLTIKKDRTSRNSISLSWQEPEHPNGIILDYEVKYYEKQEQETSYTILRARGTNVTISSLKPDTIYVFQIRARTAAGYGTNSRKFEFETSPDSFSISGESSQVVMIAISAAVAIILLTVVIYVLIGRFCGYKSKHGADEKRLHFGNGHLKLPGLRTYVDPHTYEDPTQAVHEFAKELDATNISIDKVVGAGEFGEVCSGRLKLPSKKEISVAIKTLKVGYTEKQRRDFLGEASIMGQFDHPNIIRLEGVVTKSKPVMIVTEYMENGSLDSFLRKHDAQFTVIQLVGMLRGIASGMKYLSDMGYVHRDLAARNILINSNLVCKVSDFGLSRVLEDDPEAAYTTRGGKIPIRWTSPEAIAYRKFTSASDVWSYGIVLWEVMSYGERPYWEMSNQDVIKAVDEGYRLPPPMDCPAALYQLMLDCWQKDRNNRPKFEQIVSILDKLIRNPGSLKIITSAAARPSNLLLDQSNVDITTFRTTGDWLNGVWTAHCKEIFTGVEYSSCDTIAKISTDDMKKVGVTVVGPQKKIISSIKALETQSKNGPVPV

Sequence of off-target kinases (Homo sapiens, UniProt P10721, A829P) (P10721 26-976 A829P): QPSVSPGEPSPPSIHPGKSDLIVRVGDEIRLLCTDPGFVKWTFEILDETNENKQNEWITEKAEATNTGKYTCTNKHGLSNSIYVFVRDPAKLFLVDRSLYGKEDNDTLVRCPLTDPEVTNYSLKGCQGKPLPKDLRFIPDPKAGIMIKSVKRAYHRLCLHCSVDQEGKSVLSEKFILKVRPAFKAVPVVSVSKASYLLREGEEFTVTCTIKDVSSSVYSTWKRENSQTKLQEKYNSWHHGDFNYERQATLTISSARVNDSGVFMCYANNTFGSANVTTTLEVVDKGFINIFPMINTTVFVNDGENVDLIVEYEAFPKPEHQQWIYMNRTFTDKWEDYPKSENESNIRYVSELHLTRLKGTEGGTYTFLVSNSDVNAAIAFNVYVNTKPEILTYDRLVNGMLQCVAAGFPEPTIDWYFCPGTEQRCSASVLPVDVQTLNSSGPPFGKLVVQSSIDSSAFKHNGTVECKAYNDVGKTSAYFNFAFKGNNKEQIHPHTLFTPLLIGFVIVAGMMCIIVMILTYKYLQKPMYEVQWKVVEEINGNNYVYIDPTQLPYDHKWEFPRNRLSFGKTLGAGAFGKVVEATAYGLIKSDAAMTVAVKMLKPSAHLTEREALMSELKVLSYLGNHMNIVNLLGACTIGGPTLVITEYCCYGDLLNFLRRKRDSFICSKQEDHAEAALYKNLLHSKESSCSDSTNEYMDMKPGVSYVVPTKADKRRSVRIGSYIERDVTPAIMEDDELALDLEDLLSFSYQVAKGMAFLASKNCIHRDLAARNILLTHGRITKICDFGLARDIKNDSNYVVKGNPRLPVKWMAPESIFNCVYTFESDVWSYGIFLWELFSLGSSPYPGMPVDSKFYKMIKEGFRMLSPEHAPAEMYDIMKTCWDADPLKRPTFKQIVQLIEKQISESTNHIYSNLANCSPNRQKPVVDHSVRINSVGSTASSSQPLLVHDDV

Structure (SMILES): N#Cc1cc(-c2ncnc(Nc3ccc(N4CCN(C5COC5)CC4)cc3)n2)ccc1OC1CCOCC1 [Compound 1, 5-(4-((4-(4-(oxetan-3-yl)piperazin-1-yl)phenyl)amino)-1,3,5-triazin-2-yl)-2-((tetrahydro-2H-pyran-4-yl)oxy)benzonitrile]
- inhibition (off-target kinases [1]; read-out: % Inhibition 1): 91%
- inhibition (off-target kinases [1]; read-out: % Inhibition 2): 90%
- inhibition (off-target kinases [1]; read-out: % Inhibition Avg): 90%
- inhibition (off-target kinases [2]; read-out: % Inhibition 1): 6%
- inhibition (off-target kinases [2]; read-out: % Inhibition 2): 3%
- inhibition (off-target kinases [2]; read-out: % Inhibition Avg): 4%
